Laboratory results published in patent US12486290B2, “Isoindolinone and indazole compounds for the degradation of EGFR” (C4 THERAPEUTICS, INC., priority 2019, dated 2025).

These molecules were tested against T1, EGFR T790M/L858R (NCI-H1975 cells) (Homo sapiens, UniProt P00533, L858R/T790M) (assay: EGFR (L858R) degradation analysis, Total EGFR (L858R) HTRF, NCI-H1975 cells). Details: 6 hours.
T1 construct: NCI-H1975 (harboring EGFR heterozygous T790M/L858R mutations); host or cells: NCI-H1975
Format: cell-based
Source text: NCI-H1975 (harboring EGFR heterozygous T790M/L858R mutations) and NCI-H3255 (harboring EGFR heterozygous L858R mutation) were purchased from ATCC and NCI, respectively. NCI-H1975+CS (harboring EGFR heterozygous T/790M/L858R/C797S mutations) was generated using CRISPR technology to introduce the additional C797S mutation by Horizon Discovery. RPMI 1640 no-phenol red medium and fetal bovine serum (FBS) were purchased from Gibco (Grand Island, NY, USA). Cell culture flasks and 384-well microplates were acquired from VWR (Radnor, PA, USA). Total EGFR (L858R) HTRF assay kits were purchased from Cisbio (Bedford, MA, USA).
Degradation of EGFR protein containing L858R mutation was determined based on quantification of FRET signal using Total EGFR (L858R) HTRF assay kit. Test compounds were added to the 384-well plate from a top concentration of 10 μM with 11 points, half log titration in duplicates. NCI-H1975, NCI-H1975+CS or NCI-H3255 cells were added into 384-well plates at a cell density of 10000, 10000 or 1000 cells per well, respectively. The plates were kept at 37° C. with 5% CO2 for 6 hours. Cells treated in the absence of the test compound were the negative control. Positive control was set by wells containing all reagents but no cells. FRET signal was acquired on EnVision™ Multilabel Reader (PerkinElmer, Santa Clara, CA, USA).

T1 sequence (P00533 25-1210 T790M/L858R): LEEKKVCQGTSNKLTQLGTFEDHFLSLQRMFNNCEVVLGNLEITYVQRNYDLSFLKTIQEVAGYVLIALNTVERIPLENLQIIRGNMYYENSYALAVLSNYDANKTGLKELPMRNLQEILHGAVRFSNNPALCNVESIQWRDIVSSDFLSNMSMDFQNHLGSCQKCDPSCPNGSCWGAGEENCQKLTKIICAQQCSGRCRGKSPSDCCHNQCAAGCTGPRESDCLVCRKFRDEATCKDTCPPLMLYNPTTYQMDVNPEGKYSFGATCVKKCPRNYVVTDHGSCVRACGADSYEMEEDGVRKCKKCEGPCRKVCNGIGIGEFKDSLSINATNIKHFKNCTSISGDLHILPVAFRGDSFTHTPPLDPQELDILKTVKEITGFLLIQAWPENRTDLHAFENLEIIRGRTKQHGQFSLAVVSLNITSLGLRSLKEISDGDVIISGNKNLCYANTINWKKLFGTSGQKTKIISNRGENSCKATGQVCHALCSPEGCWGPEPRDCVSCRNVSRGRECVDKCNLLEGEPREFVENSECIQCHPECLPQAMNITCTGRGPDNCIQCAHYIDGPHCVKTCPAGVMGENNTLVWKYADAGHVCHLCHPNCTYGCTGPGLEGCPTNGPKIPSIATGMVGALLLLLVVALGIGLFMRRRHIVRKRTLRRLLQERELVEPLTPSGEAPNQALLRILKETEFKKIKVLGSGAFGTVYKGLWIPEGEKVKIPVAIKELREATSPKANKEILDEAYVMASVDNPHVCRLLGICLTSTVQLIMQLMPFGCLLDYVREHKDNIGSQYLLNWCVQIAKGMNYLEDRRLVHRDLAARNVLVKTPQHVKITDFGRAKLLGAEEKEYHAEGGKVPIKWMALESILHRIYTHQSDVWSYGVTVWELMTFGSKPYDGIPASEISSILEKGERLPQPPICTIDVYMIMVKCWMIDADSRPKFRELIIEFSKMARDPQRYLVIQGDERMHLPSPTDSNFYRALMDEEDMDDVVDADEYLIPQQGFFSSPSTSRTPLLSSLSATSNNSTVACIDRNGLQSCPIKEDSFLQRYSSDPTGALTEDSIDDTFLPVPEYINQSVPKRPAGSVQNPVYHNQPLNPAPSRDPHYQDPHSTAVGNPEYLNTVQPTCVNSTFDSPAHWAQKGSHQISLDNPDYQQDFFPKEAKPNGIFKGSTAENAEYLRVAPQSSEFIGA

| Compound | DC50 |
| --- | --- |
| O=C1CCC(Nc2ccc(C3CCC(CC(=O)N4CCN(c5ccc(-c6cc(F)c7c(c6)C(=O)N(C(C(=O)Nc6nccs6)c6ncn8c6CCC8)C7)cc5)CC4)CC3)cc2)C(=O)N1 (racemic) [Compound 9, (2RS)-2-(6,7-Dihydro-5H-pyrrolo[1,2-c]imidazol-1-yl)-2-[4-fluoro-1-oxo-6-[4-[4-[2-[4-[4-[[(3RS)-2,6-dioxo-3-piperidyl]amino]phenyl]cyclohexyl]acetyl]piperazin-1-yl]phenyl]isoindolin-2-yl]-N-thiazol-2-yl-acetamide] | 0.03 µM |
| O=C1CCC(Nc2ccc(C3CCN(CC(=O)N4CCN(c5ccc(-c6cc(Cl)c7cn(C(C(=O)Nc8nccs8)c8ncn9c8CCC9)nc7c6Cl)cc5)CC4)CC3)cc2)C(=O)N1 (racemic) [Compound 61, (2RS)-2-[4,7-Dichloro-6-[4-[4-[2-[4-[4-[[(3RS)-2,6-dioxo-3-piperidyl]amino]phenyl]-1-piperidyl]acetyl]piperazin-1-yl]phenyl]indazol-2-yl]-2-(6,7-dihydro-5H-pyrrolo[1,2-c]imidazol-1-yl)-N-thiazol-2-yl-acetamide] | 0.112 µM |
| O=C1CCC(N2Cc3c(OC4CCN(C(=O)CCCN5CCN(c6ccc(-c7ccc8cn(C(C(=O)Nc9nccs9)c9ncn%10c9CCC%10)nc8c7F)cn6)CC5)CC4)cccc3C2=O)C(=O)N1 (racemic) [Compound 62, (2RS)-2-(6,7-Dihydro-5H-pyrrolo[1,2-c]imidazol-1-yl)-2-[7-fluoro-6-[6-[4-[4-oxo-4-[4-[1-oxo-2-[(3RS)-2,6-dioxo-3-piperidyl]isoindolin-4-yl]oxy-1-piperidyl]butyl]piperazin-1-yl]-3-pyridyl]indazol-2-yl]-N-thiazol-2-yl-acetamide] | 0.019 µM |
| O=C1CCC(Nc2ccc(C3CCN(CC(=O)N4CCN(c5ccc(-c6ccc7cn(C(C(=O)Nc8nccs8)c8ncn9c8CCC9)nc7c6F)cn5)CC4)CC3)cc2)C(=O)N1 (racemic) [Compound 63, (2RS)-2-(6,7-Dihydro-5H-pyrrolo[1,2-c]imidazol-1-yl)-2-[7-fluoro-6-[6-[4-[2-[4-[4-[[(3RS)-2,6-dioxo-3-piperidyl]amino]phenyl]-1-piperidyl]acetyl]piperazin-1-yl]-3-pyridyl]indazol-2-yl]-N-thiazol-2-yl-acetamide] | 0.081 µM |
| O=C1CCC(Nc2ccc(C3CCN(CC(=O)N4CCN(c5ccc(-c6cc(F)c7c(c6)C(=O)N(C(C(=O)Nc6nccs6)c6ncn8c6CCC8)C7)cc5)CC4)CC3)cc2F)C(=O)N1 (stereo not shown) [Compound 13, 2-(6,7-dihydro-5H-pyrrolo[1,2-c]imidazol-1-yl)-2-[6-[4-[4-[2-[4-[4-[(2,6-dioxo-3-piperidyl)amino]-3-fluoro-phenyl]-1-piperidyl]acetyl]piperazin-1-yl]phenyl]-4-fluoro-1-oxo-isoindolin-2-yl]-N-thiazol-2-yl-acetamide] | 0.052 µM |
| O=C1CCC(Nc2cccc(C3CCN(CC(=O)N4CCN(c5ccc(-c6cc(F)c7c(c6)C(=O)N(C(C(=O)Nc6nccs6)c6ncn8c6CCC8)C7)cc5)CC4)CC3)c2)C(=O)N1 (stereo not shown) [Compound 16, 2-(6,7-dihydro-5H-pyrrolo[1,2-c]imidazol-1-yl)-2-(6-(4-(4-(2-(4-(3-((2,6-dioxopiperidin-3-yl)amino)phenyl)piperidin-1-yl)acetyl)piperazin-1-yl)phenyl)-4-fluoro-1-oxoisoindolin-2-yl)-N-(thiazol-2-yl)acetamide] | 0.092 µM |
| O=C1CCC(Nc2ccc(N3CCC(O)(CC(=O)N4CCN(c5ccc(-c6cc(F)c7c(c6)C(=O)N(C(C(=O)Nc6nccs6)c6ncn8c6CCC8)C7)cc5)CC4)CC3)c(C(F)(F)F)c2)C(=O)N1 (stereo not shown) [Compound 18, 2-(6,7-dihydro-5H-pyrrolo[1,2-c]imidazol-1-yl)-2-(6-(4-(4-(2-(1-(4-((2,6-dioxopiperidin-3-yl)amino)-2-(trifluoromethyl)phenyl)-4-hydroxypiperidin-4-yl)acetyl)piperazin-1-yl)phenyl)-4-fluoro-1-oxoisoindolin-2-yl)-N-(thiazol-2-yl)acetamide] | 0.046 µM |
| O=C1CC[C@@H](Nc2ccc(C3CCN(CC(=O)N4CCC(c5ccc(-c6cc(F)c7c(c6)C(=O)N(C(C(=O)Nc6nccs6)c6ncn8c6CCC8)C7)cc5)CC4)CC3)cc2)C(=O)N1 (stereo partly drawn) [Compound 23, 2-(6,7-dihydro-5H-pyrrolo[1,2-c]imidazol-1-yl)-2-(6-(4-(1-(2-(4-(4-(((R)-2,6-dioxopiperidin-3-yl)amino)phenyl)piperidin-1-yl)acetyl)piperidin-4-yl)phenyl)-4-fluoro-1-oxoisoindolin-2-yl)-N-(thiazol-2-yl)acetamide] | 0.033 µM |
| O=C1CCC(Nc2ccc(C3CCN(C(=O)CN4CCC(c5ccc(-c6cc(F)c7c(c6)C(=O)N(C(C(=O)Nc6nccs6)c6ncn8c6CCC8)C7)cc5)CC4)CC3)cc2)C(=O)N1 (stereo not shown) [Compound 26, 2-(6,7-dihydro-5H-pyrrolo[1,2-c]imidazol-1-yl)-2-[6-[4-[1-[2-[4-[4-[(2,6-dioxo-3-piperidyl)amino]phenyl]-1-piperidyl]-2-oxo-ethyl]-4-piperidyl]phenyl]-4-fluoro-1-oxo-isoindolin-2-yl]-N-thiazol-2-yl-acetamide] | 0.026 µM |
| O=C1CCC(Nc2ccc(C3CCN(CC(=O)N4CCC(Oc5ccc(-c6cc(F)c7c(c6)C(=O)N(C(C(=O)Nc6nccs6)c6ncn8c6CCC8)C7)cc5)CC4)CC3)cc2)C(=O)N1 (stereo not shown) [Compound 31, 2-(6,7-dihydro-5H-pyrrolo[1,2-c]imidazol-1-yl)-2-[6-[4-[[1-[2-[4-[4-[(2,6-dioxo-3-piperidyl)amino]phenyl]-1-piperidyl]acetyl]-4-piperidyl]oxy]phenyl]-4-fluoro-1-oxo-isoindolin-2-yl]-N-thiazol-2-yl-acetamide] | 0.032 µM |
| O=C1CCC(Nc2ccc(C3CCN(CC(=O)N4CCC(Oc5ccc(-c6cc(F)c7c(c6)C(=O)N(C(C(=O)Nc6nccs6)c6ncn8c6CCC8)C7)cc5)CC4)CC3)nc2)C(=O)N1 (stereo not shown) [Compound 36, 2-(6,7-dihydro-5H-pyrrolo[1,2-c]imidazol-1-yl)-2-(6-(4-((1-(2-(4-(5-((2,6-dioxopiperidin-3-yl)amino)pyridin-2-yl)piperidin-1-yl)acetyl)piperidin-4-yl)oxy)phenyl)-4-fluoro-1-oxoisoindolin-2-yl)-N-(thiazol-2-yl)acetamide] | 0.031 µM |

Stronger by DC50, values ahead:

| DC50 | Compound |
| --- | --- |
| 0.004 µM | O=C1CCC(Oc2ccc(N3CCN(CC(=O)N4CCC(NC(=O)c5ccc(C#Cc6cc(F)c7c(c6)C(=O)N(C(C(=O)Nc6nccs6)c6ncn8c6CCC8)C7)cn5)CC4)CC3)cc2)C(=O)N1 (racemic) [Compound 3, 5-[2-[7-Fluoro-3-oxo-2-[(1RS)-1-(6,7-dihydro-5H-pyrrolo[1,2-c]imidazol-1-yl)-2-oxo-2-(thiazol-2-ylamino)ethyl]isoindolin-5-yl]ethynyl]-N-[1-[2-[4-[4-[[(3RS)-2,6-dioxo-3-piperidyl]oxy]phenyl]piperazin-1-yl]acetyl]-4-piperidyl]pyridine-2-carboxamide] |
| 0.017 µM | O=C1CCC(Nc2ccc(C3CCN(C(=O)CCCN4CCN(c5ccc(-c6cc(F)c7c(c6)C(=O)N(C(C(=O)Nc6nccs6)c6ncn8c6CCC8)C7)cc5)CC4)CC3)cc2)C(=O)N1 (racemic) [Compound 8, (2RS)-2-(6,7-Dihydro-5H-pyrrolo[1,2-c]imidazol-1-yl)-2-[4-fluoro-1-oxo-6-[4-[4-[4-oxo-4-[4-[4-[[(3RS)-2,6-dioxo-3-piperidyl]amino]phenyl]-1-piperidyl]butyl]piperazin-1-yl]phenyl]isoindolin-2-yl]-N-thiazol-2-yl-acetamide] |
| 0.013 µM | O=C1CCC(Nc2ccc(C3CCN(CC(=O)N4CC5(C4)CN(c4ccc(-c6cc(F)c7c(c6)C(=O)N(C(C(=O)Nc6nccs6)c6ncn8c6CCC8)C7)cc4)C5)CC3(F)F)cc2)C(=O)N1 (single isomer, unassigned) [Compound 51, 2-(6,7-dihydro-5H-pyrrolo[1,2-c]imidazol-1-yl)-2-(6-(4-(6-(2-(4-(4-((2,6-dioxopiperidin-3-yl)amino)phenyl)-3,3-difluoropiperidin-1-yl)acetyl)-2,6-diazaspiro[3.3]heptan-2-yl)phenyl)-4-fluoro-1-oxoisoindolin-2-yl)-N-(thiazol-2-yl)acetamide] |
| 0.007 µM | O=C1CCC(Nc2ccc(CC(=O)N3CCC(NC(=O)c4ccc(C#Cc5cc(F)c6c(c5)C(=O)N(C(C(=O)Nc5nccs5)c5ncn7c5CCC7)C6)cn4)CC3)cc2)C(=O)N1 (stereo not shown) [Compound 2, 5-[2-[2-[1-(6,7-dihydro-5H-pyrrolo[1,2-c]imidazol-1-yl)-2-oxo-2-(thiazol-2-ylamino)ethyl]-7-fluoro-3-oxo-isoindolin-5-yl]ethynyl]-N-[1-[2-[4-[(2,6-dioxo-3-piperidyl)amino]phenyl]acetyl]-4-piperidyl]pyridine-2-carboxamide] |
| 0.018 µM | O=C1CC[C@@H](Nc2ccc(C3CCN(CC(=O)N4CCN(c5ccc(-c6cc(F)c7c(c6)C(=O)N(C(C(=O)Nc6nccs6)c6ncn8c6CCC8)C7)cc5)CC4)CC3)cc2)C(=O)N1 (stereo partly drawn) [Compound 7, 2-(6,7-dihydro-5H-pyrrolo[1,2-c]imidazol-1-yl)-2-[6-[4-[4-[2-[4-[4-[[(3R)-2,6-dioxo-3-piperidyl]amino]phenyl]-1-piperidyl]acetyl]piperazin-1-yl]phenyl]-4-fluoro-1-oxo-isoindolin-2-yl]-N-thiazol-2-yl-acetamide] |
